Literature values, collected in PMC9405102, “Targeted Modification and Structure-Activity Study of GL-29, an Analogue of the Antimicrobial Peptide Palustrin-2ISb” (Antibiotics, 2022).

Legend:
[1] = system: Staphylococcus aureus (S. aureus); design: method as in PMID 21911019; conditions: cited from earlier work
[2] = system: Escherichia coli (E. coli); design: method as in PMID 21911019; conditions: cited from earlier work
[3] = system: methicillin-resistant S. aureus (MRSA); design: method as in PMID 21911019; conditions: cited from earlier work
[4] = system: C. albicans; design: method as in PMID 21911019; conditions: at 100 μM; cited from earlier work
[5] = system: Gram-positive and Gram-negative bacteria; design: method as in PMID 21193000; conditions: cited from earlier work

GLWNSIKIAGKKLFVNVLDKIRCKVAGGCKTSPDVE [palustrin-2ISb, parent antimicrobial peptide of 36 residues isolated from Odorrana ishikawae]
MIC [1]: 6.3 µM
MIC [2]: 6.3 µM
MIC [3]: 100 µM
activity against C. albicans [4]: no activity

GKKLFVNVLDKIRCKVAGGC [palustrin-2ISb-des-C7-des-N9, literature analogue with one helical part of Pa2ISb-des-C7]
activity against Gram-positive and Gram-negative bacteria [5]: little activity
